Test results as given in patent US9549552B2, “Active compound combinations having insecticidal properties” (BAYER CROPSCIENCE AKTIENGESELLSCHAFT, priority 2013, dated 2017).

What was measured:
Type in all cases: in vivo
Conditions in all cases: mortality
[1] = tested on: fall armyworm larvae (Spodoptera frugiperda); assay: Spodoptera frugiperda spray test (Example C2, maize leaf sections)
Procedure: (§1) To produce a suitable preparation of active compound, 1 part by weight of active compound is mixed with the stated amount of solvents and is diluted with water, containing an emulsifier concentration of 1000 ppm, to the desired concentration. Further test concentrations are prepared by dilution with emulsifier containing water.
(§2) Maize (Zea mays) leaf sections are sprayed with a preparation of the active ingredient of the desired concentration. Once dry, the leaf sections are infested with fall armyworm larvae (Spodoptera frugiperda).
(§3) After the specified period of time, mortality in % is determined 100% means all caterpillars have been killed and 0% means none of the caterpillars have been killed. The mortality values determined thus are recalculated using the Colby-formula (see sheet 1).

[2] = tested on: caterpillars of the fall army worm (Spodoptera frugiperda); assay: Spodoptera frugiperda spray test (Example C1, cotton leaves)
Procedure: (§4) Solvent: 7 parts by weight of dimethylformamide
(§5) Emulsifier: alkylaryl polyglycol ether
as §1, with “solvent” for “solvents”, “water Ammonium salt and/or penetration enhancer in a dosage of 1000 ppm are added if necessary.” for “water.”
Cotton leaves (Gossypium hirsutum) are treated by being sprayed with the preparation of the active compound of the desired concentration and are infested with caterpillars of the fall army worm (Spodoptera frugiperda).
After the specified period of time mortality in % is determined. 100% means all the caterpillars have been killed and 0% means none of the caterpillars have been killed. The mortality values determined thus are recalculated using the Colby-formula (see sheet 1).

[3] = tested on: mustard beetle larvae (Phaedon cochleariae); assay: Phaedon cochleariae spray test (Example A3, Chinese cabbage leaf disks)
Procedure: as §1
Chinese cabbage (Brassica pekinensis) leaf disks are sprayed with a preparation of the active ingredient of the desired concentration. Once dry, the leaf disks are infested with mustard beetle larvae (Phaedon cochleariae).
(§6) After the specified period of time, mortality in % is determined 100% means all beetle larvae have been killed and 0% means none of the beetle larvae have been killed. The mortality values determined thus are recalculated using the Colby-formula (see sheet 1).

[4] = tested on: two spotted spidermite (Tetranychus urticae); assay: Tetranychus urticae spray test, OP-resistant (Example B, French beans)
Procedure: (§7) To produce a suitable preparation of active compound, 1 part by weight of active compound is mixed with the stated amount of solvent and emulsifier, and the concentrate is diluted with emulsifier-containing water to the desired concentration. To produce a suitable preparation of a spore suspension the spores are diluted with emulsifier-containing water to the desired concentration.
French beans (Phaseolus vulgaris) which are heavily infested with all stages of the two spotted spidermite (Tetranychus urticae), are sprayed with a preparation of the active ingredient of the desired concentration.
After the specified period of time, mortality in % is determined 100% means all spider mites have been killed and 0% means none of the spider mites have been killed. The mortality values determined thus are recalculated using the Colby-formula (see sheet 1).

[5] = tested on: mustard beetle larvae (Phaedon cochleariae); assay: Phaedon cochleariae spray test (Example A1, Chinese cabbage leaf disks)
Procedure: as §7
Chinese cabbage (Brassica pekinensis) leaf-disks are sprayed with a preparation of the active ingredient of the desired concentration. Once dry, the leaf disks are infested with mustard beetle larvae (Phaedon cochleariae).
as §6

[6] = tested on: fall armyworm larvae (Spodoptera frugiperda); assay: Spodoptera frugiperda spray test (Example C3, maize leaf sections)
Procedure: as §7, with “preparation of the active compound,” for “preparation of active compound,”
as §2, §3

[7] = tested on: mustard beetle larvae (Phaedon cochleariae); assay: Phaedon cochleariae spray test (Example A2, cabbage leaves)
Procedure: as §4, §5
as §1, with “solvent” for “solvents”, “water Ammonium salt and/or penetration enhancer in a dosage of 1000 ppm are added to the desired concentration if necessary.” for “water.”
Cabbage leaves (Brassica oleracea) are treated by being sprayed with the preparation of the active compound of the desired concentration and are infested with mustard beetle larvae (Phaedon cochleariae).
After the specified period of time mortality in % is determined. 100% means all the beetle larvae have been killed and 0% means none of the beetle larvae have been killed. The mortality values determined thus are recalculated using the Colby-formula (see sheet 1).

`COC(=O)N(C(=O)N1CO[C@@]2(C(=O)OC)Cc3cc(Cl)ccc3C2=N1)c1ccc(OC(F)(F)F)cc1` [Indoxacarb] was tested, and the “Efficacy in % after 2 d” value ([1]; 0.1 g ai/ha) was 0%, the “Efficacy in % after 6 d” value ([1]; 0.1 g ai/ha) was 0% and the “Efficacy in % after 2 d” value ([2]; 0.2 ppm) was 10%. The “Efficacy in % after 3 d” value ([2]; 0.2 ppm) was 20%, the “Efficacy in % after 6 d” value ([3]; 4 g ai/ha) was 0% and the “Efficacy in % after 2 d” value ([3]; 8 g ai/ha) was 50%. The “Efficacy in % after 6 d” value ([3]; 8 g ai/ha) was 50%.

In the case of `CCOC(=O)OC1=C(c2cc(C)ccc2C)C(=O)N[C@]12CC[C@@H](OC)CC2` [Spirotetramat], the “Efficacy in % after 6 d” value ([4]; 0.8 g ai/ha) is reported as 30%, the “Efficacy in % after 6 d” value ([4]; 2 g ai/ha) is reported as 20% and the “Efficacy in % after 6 d” value ([5]; 0.8 g ai/ha) is reported as 0%. For the same compound, the “Efficacy in % after 6 d” value ([6]; 15 g ai/ha) was 0%.

For `CCOCn1c(-c2ccc(Cl)cc2)c(C#N)c(Br)c1C(F)(F)F` [Chlorfenapyr], the “Efficacy in % after 2 d” value ([7]; 4 ppm) was 20%, the “Efficacy in % after 1 d” value ([7]; 8 ppm) was 5% and the “Efficacy in % after 3 d” value ([2]; 0.8 ppm) was 0%. For the same compound, the “Efficacy in % after 2 d” value ([2]; 1.6 ppm) was 0% and the “Efficacy in % after 6 d” value ([3]; 4 g ai/ha) was 0%.

`Cc1cc(C(F)(C(F)(F)F)C(F)(F)F)ccc1NC(=O)c1cccc(Cl)c1C(=O)NC(C)(C)C#N` [(I-5)] was tested, and the “Efficacy in % after 6 d” value ([4]; 2 g ai/ha) was 0%, the “Efficacy in % after 6 d” value ([4]; 4 g ai/ha) was 0% and the “Efficacy in % after 6 d” value ([4]; 10 g ai/ha) was 0%. The “Efficacy in % after 6 d” value ([5]; 4 g ai/ha) was 0%, the “Efficacy in % after 2 d” value ([1]; 1 g ai/ha) was 0% and the “Efficacy in % after 6 d” value ([1]; 1 g ai/ha) was 33%. The “Efficacy in % after 2 d” value ([7]; 0.8 ppm) was 0%, the “Efficacy in % after 1 d” value ([7]; 1.6 ppm) was 0% and the “Efficacy in % after 2 d” value ([2]; 0.04 ppm) was 0%. For the same compound, the “Efficacy in % after 3 d” value ([2]; 0.04 ppm) was 0%, the “Efficacy in % after 2 d” value ([2]; 0.08 ppm) was 10% and the “Efficacy in % after 3 d” value ([2]; 0.08 ppm) was 20%. The “Efficacy in % after 6 d” value ([6]; 0.25 g ai/ha) was 0%, the “Efficacy in % after 6 d” value ([6]; 3 g ai/ha) was 33% and the “Efficacy in % after 6 d” value ([3]; 2 g ai/ha) was 0%. The “Efficacy in % after 2 d” value ([3]; 4 g ai/ha) was 0% and the “Efficacy in % after 6 d” value ([3]; 4 g ai/ha) was 0%.

For `O=C(NC(=O)c1c(F)cccc1F)Nc1cc(Cl)c(Oc2ncc(C(F)(F)F)cc2Cl)c(Cl)c1` [Chlorfluazuron], the “Efficacy in % after 2 d” value ([1]; 2 g ai/ha) was 0%, the “Efficacy in % after 6 d” value ([1]; 2 g ai/ha) was 0% and the “Efficacy in % after 2 d” value ([2]; 0.4 ppm) was 0%. For the same compound, the “Efficacy in % after 3 d” value ([2]; 0.4 ppm) was 30% and the “Efficacy in % after 6 d” value ([3]; 8 g ai/ha) was 0%.
